{"source": "patent EP2730584B1", "about": "“PROTEIN-P[…] OBTAINED FROM NERVOUS TISSUE OF HOOFED LIVESTOCK EMBRYOS, PROCESS FOR PREPARING SAME AND PHARMACEUTICAL COMPOSITION” (Aktsionernoe Obschestvo \"Pharm-Sintez\", priority 2011, dated 2012)", "tested_on": "mice marrow cells", "description": "The study objective was detection and quantitative estimate of cytogenetic (mutagenic) activity of pharmacologic substances in polychromatophil cells (PCC) of mammal marrow. The method is based on microscopic recording of cells with micronuclei.\nThe experiments were performed to 2 months old male and female F1 (CBAx C57BI6/J) cross-breed mice weighing 18-20 g. Each group included 6 animals. The animals were kept at 12 hours light pattern with free food and water access. Animal experiments for assessment of mutagenic properties of the PPNC with single and five-time dosing were conducted in compliance with official records. Three sessions of experiments were carried out with corresponding controls: therapeutic dose was tested on male animals with a single introduction; subtoxic dose was tested on male animals with a single introduction; therapeutic dose was tested on male animals with a single introduction; subtoxic dose was tested on male animals and female with five-time introduction. […] The PPNC dosing for assessment of mutagenic activity was calculated based on the maximum human recommended daily therapeutic dose (TD). […] In order to calculate an experiment dosing for mice, a conversion factor is recommended that takes into account a human or animal body surface area to weight ratio. In our study, it was 8.33. Therefore, the mice TD was approximately 8.33 x human TD (0.42 mg/kg).\nAs a subtoxic dose, 10mg/kg, the maximum possible in this experiment conditions dosing was used, as the substance was presented in 0.1 mg/ml concentration, and the normally used amount of substance for mice is 0.1 ml per 10 g.\nSeven animal groups were formed: four experimental groups and three corresponding reference groups. The substance in the amount of 0.1 mg/kg was introduced five times at 24 hours interval to males and females. […]\nMarrow cell preparations for micronuclei count were made by a standard method in compliance with common guidelines [20]. […] 2,000 polychromatophil cells from each animal were analyzed in encoded preparations. […]"}
{"smiles": "O=P1(N(CCCl)CCCl)NCCCO1", "note": "(stereo not drawn) [Cyclophosphamide, cyclophosphamide]", "values": [{"measurement": "frequency of micronucleus cells", "setting": "20 mg/kg intraperitoneally, male mice, 3.16 % in reference", "value": 62.1, "unit": "%"}, {"measurement": "increased frequency of micronucleus cells", "setting": "20 mg/kg intraperitoneally, male mice, P<0.001", "value": 19.6, "unit": "times"}, {"measurement": "polychromatophilic to normochromatic erythrocytes ratio", "setting": "20 mg/kg, compared to control P<0.005", "value": "found to shift to the latter"}]}
